Reference: patent US11261174B2, “Pyrazole O-linked carbamoyl cyclohexyl acids as LPA antagonists” (BRISTOL-MYERS SQUIBB COMPANY, priority 2017, dated 2022)

Biological target: LPA1 (Homo sapiens, UniProt Q92633)
Experiment: LPA1 functional antagonist assay (LPA-induced calcium flux)
Assay type: cell-based
Parameters: expressed in transfected cells; host or cells: Chinese hamster ovary (CHO) cells
Details: CHO cells overexpressing human LPA1; calcium flux induced by 10 nM LPA; read-out: hLPA1 IC50
Method: The effectiveness of compounds of the present invention as LPA1 inhibitors can be determined in an LPA1 functional antagonist assay as follows:
Chinese hamster ovary cells overexpressing human LPA1 were plated overnight (15,000 cells/well) in poly-D-lysine coated 384-well microplates (Greiner bio-one, Cat #781946) in DMEM/F12 medium (Gibco, Cat #11039). Following overnight culture, cells were loaded with calcium indicator dye (AAT Bioquest Inc, Cat #34601) for 30 minutes at 37° C. The cells were then equilibrated to room temperature for 30 minutes before the assay. Test compounds solubilized in DMSO were transferred to 384 well non-binding surface plates (Corning, Cat #3575) using the Labcyte Echo acoustic dispense and diluted with assay buffer [1×HBSS with calcium/magnesium (Gibco Cat #14025-092), 20 mM HEPES (Gibco Cat #15630-080) and 0.1% fatty acid free BSA (Sigma Cat # A9205)] to a final concentration of 0.5% DMSO. Diluted compounds were added to the cells by FDSS6000 (Hamamatsu) at final concentrations ranging from 0.08 nM to 5 μM. and were then incubated for 20 min at room temperature at which time LPA (Avanti Polar Lipids Cat #857130C) was added at final concentrations of 10 nM to stimulate the cells. […] IC50 values were determined by fitting data to a 4-parameter logistic equation (GraphPad Prism, San Diego Calif.).

Sequence of LPA1 (Q92633 whole entry): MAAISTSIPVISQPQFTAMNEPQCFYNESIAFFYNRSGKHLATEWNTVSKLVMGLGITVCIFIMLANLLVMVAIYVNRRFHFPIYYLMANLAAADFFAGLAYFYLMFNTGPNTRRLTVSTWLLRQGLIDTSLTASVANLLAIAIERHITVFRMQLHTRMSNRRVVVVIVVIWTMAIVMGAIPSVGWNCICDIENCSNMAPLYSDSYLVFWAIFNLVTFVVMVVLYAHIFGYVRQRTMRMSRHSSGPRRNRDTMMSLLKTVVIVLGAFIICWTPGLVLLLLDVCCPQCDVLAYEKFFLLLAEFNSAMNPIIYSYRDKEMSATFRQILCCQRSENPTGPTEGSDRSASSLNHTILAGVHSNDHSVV

Row | Compound | IC50 [µM]
1 | CCCCN(C)C(=O)OCc1c(-c2cnc(O[C@H]3CCC[C@H](C(=O)O)C3)c(C)n2)cnn1C (racemic) [Example 7] | 0.04
2 | CCCC(C)(C)N(C)C(=O)OCc1c(-c2ccc(O[C@@H]3CCC[C@@H](C(=O)O)C3)c(C)n2)cnn1C (racemic) [Example 28] | 0.14
3 | CCCC(C)(C)N(C)C(=O)OCc1c(-c2ccc(O[C@@H]3CCC[C@@H](C(=O)O)C3)cn2)cnn1C (racemic) [Example 31] | 0.051
4 | CN(CCC1CC1)C(=O)OCc1c(-c2ccc(O[C@@H]3CCC[C@@H](C(=O)O)C3)cn2)cnn1C (racemic) [Example 32] | 0.054
5 | CN(CC1CC1)C(=O)OCc1c(-c2ccc(O[C@@H]3CCC[C@@H](C(=O)O)C3)cc2)cnn1C (racemic) [Example 41] | 1.76
6 | C[C@H](C1CC1)N(C)C(=O)OCc1c(-c2ccc(O[C@H]3CCC[C@H](C(=O)O)C3)cn2)cnn1C [Example 1, (1S,3S)-3-((6-(5-(((((R)-1-cyclopropylethyl)(methyl)carbamoyl)oxy)methyl)-1-methyl-1H-pyrazol-4-yl)pyridin-3-yl)oxy)cyclohexane-1-carboxylic Acid] | 0.067
7 | CC(C1CCC1)N(C)C(=O)OCc1c(-c2ccc(O[C@H]3CCCC(C(=O)O)C3)cn2)cnn1C (stereo partly drawn) [Example 2] | 0.136
8 | CN(CC1CCC1)C(=O)OCc1c(-c2ccc(O[C@H]3CCC[C@H](C(=O)O)C3)cn2)cnn1C [Example 3] | 0.048
9 | CN(CC1CC1)C(=O)OCc1c(-c2ccc(O[C@H]3CCC[C@H](C(=O)O)C3)cn2)cnn1C [Example 4] | 0.165
10 | Cc1nc(-c2cnn(C)c2COC(=O)N(C)[C@H](C)C2CC2)cnc1O[C@H]1CCC[C@H](C(=O)O)C1 [Example 6] | 0.094
11 | CC[C@H](C)CN(C)C(=O)OCc1c(-c2ccc(O[C@H]3CCC[C@H](C(=O)O)C3)c(C)n2)cnn1C [Example 11] | 0.073
12 | CCCN(C)C(=O)OCc1c(-c2ccc(O[C@H]3CCC[C@H](C(=O)O)C3)c(C)n2)cnn1C [Example 12] | 0.054
13 | Cc1nc(-c2cnn(C)c2COC(=O)N(C)CC2CCCC2)ccc1O[C@H]1CCC[C@H](C(=O)O)C1 [Example 13] | 0.244
14 | Cc1nc(-c2cnn(C)c2COC(=O)N(C)Cc2cccc(Cl)c2)ccc1O[C@H]1CCC[C@H](C(=O)O)C1 [Example 14] | 1.12
15 | Cc1nc(-c2cnn(C)c2COC(=O)N(C)C2(C3CC3)CC2)ccc1O[C@H]1CCC[C@H](C(=O)O)C1 [Example 17] | 0.043
16 | CCCC1(N(C)C(=O)OCc2c(-c3ccc(O[C@H]4CCC[C@H](C(=O)O)C4)c(C)n3)cnn2C)CC1 [Example 18] | 0.055
17 | CN(Cc1ccccc1)C(=O)OCc1c(-c2ccc(O[C@@H]3CCC[C@@H](C(=O)O)C3)cc2)cnn1C [Example 36] | 0.376

Row | Compound | IC50 [µM]
18 | CC(C)CCN(C)C(=O)OCc1c(-c2ccc(O[C@@H]3CCC[C@@H](C(=O)O)C3)cc2)cnn1C [Example 37] | 2.04
19 | CN(C(=O)OCc1c(-c2ccc(O[C@@H]3CCC[C@@H](C(=O)O)C3)cc2)cnn1C)C1CCC1 [Example 42] | 0.415
20 | CC(C)CN(C)C(=O)OCc1c(-c2ccc(O[C@H]3CCC[C@H](C(=O)O)C3)cc2)cnn1C [Example 49] | 0.286
21 | CN(C(=O)OCc1c(-c2ccc(O[C@H]3CCC[C@H](C(=O)O)C3)cc2)cnn1C)C1CCC1 [Example 50] | 0.07
22 | CN(CC1CC1)C(=O)OCc1c(-c2ccc(O[C@H]3CCC[C@H](C(=O)O)C3)cc2)cnn1C [Example 51] | 0.399
23 | CN(CC1CCC1)C(=O)OCc1c(-c2ccc(O[C@H]3CCC[C@H](C(=O)O)C3)cc2)cnn1C [Example 52] | 0.053
24 | CCC(C)N(C)C(=O)OCc1c(-c2ccc(O[C@H]3CCC[C@H](C(=O)O)C3)cc2)cnn1C (stereo partly drawn) [Example 53] | 0.086
25 | CCCC(C)N(C)C(=O)OCc1c(-c2ccc(O[C@H]3CCC[C@H](C(=O)O)C3)cc2)cnn1C (stereo partly drawn) [Example 54] | 0.087
26 | C[C@@H](C1CC1)N(C)C(=O)OCc1c(-c2ccc(O[C@H]3CCC[C@H](C(=O)O)C3)cc2)cnn1C [Example 57] | 0.192
27 | C[C@H](C1CC1)N(C)C(=O)OCc1c(-c2ccc(O[C@H]3CCC[C@H](C(=O)O)C3)cc2)cnn1C [Example 58] | 0.038
28 | CCC(C)N(C)C(=O)OCc1c(-c2ccc(O[C@H]3CCC[C@H](C(=O)O)C3)cn2)cnn1C (stereo partly drawn) [Example 59] | 0.401
29 | CC(C1CC1)N(C)C(=O)OCc1c(-c2ccc(O[C@H]3CCC[C@H](C(=O)O)C3)cn2)cnn1C (stereo partly drawn) [Example 61] | 0.134
30 | CN(CCC1CC1)C(=O)OCc1c(-c2ccc(O[C@H]3CCC[C@H](C(=O)O)C3)cc2)cnn1C [Example 63] | 0.046
31 | Cc1nc(-c2cnn(C)c2COC(=O)N(C)[C@H](C)C2CC2)ccc1O[C@H]1CCC[C@H](C(=O)O)C1 [Example 65] | 0.048
32 | CCCN(C)C(=O)OCc1c(-c2ncc(O[C@H]3CCC[C@H](C(=O)O)C3)c(C)n2)cnn1C [Example 66, (1S,3S)-3-((4-Methyl-2-(1-methyl-5-(((methyl(propyl)carbamoyl)oxy)methyl)-1H-pyrazol-4-yl)pyrimidin-5-yl)oxy)cyclohexane-1-carboxylic Acid] | 0.214
33 | CCCCN(C)C(=O)OCc1c(-c2ncc(O[C@H]3CCC[C@H](C(=O)O)C3)c(C)n2)cnn1C [Example 67] | 0.059

Stronger by IC50, values ahead:

Row | IC50 [µM] | Compound
34 | 0.024 | Cc1nc(-c2cnn(C)c2COC(=O)N(C)Cc2ccccc2)ccc1O[C@@H]1CCC[C@@H](C(=O)O)C1 (racemic) [Example 27]
35 | 0.033 | CC(C)CCN(C)C(=O)OCc1c(-c2ccc(O[C@@H]3CCC[C@@H](C(=O)O)C3)cn2)cnn1C (racemic) [Example 34]
36 | 0.03 | Cc1nc(-c2cnn(C)c2COC(=O)N(C)C2CCCC2)ccc1O[C@H]1CCC[C@H](C(=O)O)C1 [Example 5]
37 | 0.034 | Cc1nc(-c2cnn(C)c2COC(=O)N(C)Cc2ccccc2)cnc1O[C@H]1CCC[C@H](C(=O)O)C1 [Example 8]
38 | 0.034 | Cc1nc(-c2cnn(C)c2COC(=O)N(C)C2CCCC2)cnc1O[C@H]1CCC[C@H](C(=O)O)C1 [Example 9]
39 | 0.01 | Cc1nc(-c2cnn(C)c2COC(=O)N(C)Cc2ccccc2)ccc1O[C@H]1CCC[C@H](C(=O)O)C1 [Example 15]
40 | 0.008 | Cc1nc(-c2cnn(C)c2COC(=O)N(C)Cc2cccc(F)c2)ccc1O[C@H]1CCC[C@H](C(=O)O)C1 [Example 16]
41 | 0.009 | Cc1nc(-c2cnn(C)c2COC(=O)N(C)CCC2CC2)ccc1O[C@H]1CCC[C@H](C(=O)O)C1 [Example 19]
42 | 0.016 | CCCCN(C)C(=O)OCc1c(-c2ccc(O[C@H]3CCC[C@H](C(=O)O)C3)c(C)n2)cnn1C [Example 20]
43 | 0.01 | Cc1nc(-c2cnn(C)c2COC(=O)N(C)CC2CCC2)ccc1O[C@H]1CCC[C@H](C(=O)O)C1 [Example 21]
44 | 0.028 | Cc1nc(-c2cnn(C)c2COC(=O)N(C)C(C2CC2)C2CC2)ccc1O[C@H]1CCC[C@H](C(=O)O)C1 [Example 23]
45 | 0.005 | Cc1nc(-c2cnn(C)c2COC(=O)N(C)CCC(C)C)ccc1O[C@H]1CCC[C@H](C(=O)O)C1 [Example 24]
46 | 0.02 | Cc1nc(-c2cnn(C)c2COC(=O)N(C)CC2CC2)ccc1O[C@H]1CCC[C@H](C(=O)O)C1 [Example 25]
47 | 0.03 | CCC(CC)N(C)C(=O)OCc1c(-c2ccc(O[C@H]3CCC[C@H](C(=O)O)C3)cn2)cnn1C [Example 26]
48 | 0.005 | CCCCN(C)C(=O)OCc1c(-c2ccc(O[C@H]3CCC[C@H](C(=O)O)C3)c(C)c2)cnn1C [Example 30]
49 | 0.023 | CC(C)CCN(C)C(=O)OCc1c(-c2ccc(O[C@H]3CCC[C@H](C(=O)O)C3)cn2)cnn1C [Example 33]
50 | 0.009 | CCCCN(C)C(=O)OCc1c(-c2ccc(O[C@H]3CCC[C@H](C(=O)O)C3)cn2)cnn1C [Example 35]
51 | 0.006 | CC(C)CCN(C)C(=O)OCc1c(-c2ccc(O[C@H]3CCC[C@H](C(=O)O)C3)cc2)cnn1C [Example 38]
52 | 0.019 | Cc1cc(-c2cnn(C)c2COC(=O)N(C)C2CCC2)ccc1O[C@H]1CCC[C@H](C(=O)O)C1 [Example 45]
53 | 0.027 | Cc1cc(-c2cnn(C)c2COC(=O)N(C)C(C)C2CCC2)ccc1O[C@H]1CCC[C@H](C(=O)O)C1 (stereo partly drawn) [Example 46]
54 | 0.027 | Cc1cc(-c2cnn(C)c2COC(=O)N(C)C(C)C2CC2)ccc1O[C@H]1CCC[C@H](C(=O)O)C1 (stereo partly drawn) [Example 47]
55 | 0.008 | Cc1cc(-c2cnn(C)c2COC(=O)N(C)C2CCCC2)ccc1O[C@H]1CCC[C@H](C(=O)O)C1 [Example 48]
56 | 0.022 | CC(C1CCC1)N(C)C(=O)OCc1c(-c2ccc(O[C@H]3CCC[C@H](C(=O)O)C3)cc2)cnn1C (stereo partly drawn) [Example 55]
57 | 0.018 | CN(C(=O)OCc1c(-c2cnc(O[C@H]3CCC[C@H](C(=O)O)C3)cn2)cnn1C)C1CCCC1 [Example 56]
58 | 0.011 | CCCCN(C)C(=O)OCc1c(-c2ccc(O[C@H]3CCC[C@H](C(=O)O)C3)c(C)c2)cnn1C [Example 60]
59 | 0.031 | CN(C(=O)OCc1c(-c2ccc(O[C@H]3CCC[C@H](C(=O)O)C3)cn2)cnn1C)C1CCCC1 [Example 62]
60 | 0.023 | CCCCN(C)C(=O)OCc1c(-c2ccc(O[C@H]3CCC[C@H](C(=O)O)C3)cc2)cnn1C [Example 64]
